Where two headings read alike, the source gives them in different places.
Tests used:
Type in all cases: cell-based, human
HiBiT-tagged HTT protein = test: HiBiT protein abundance assay, HTT (K562 HiBiT knock-in); settings: HiBiT knock-in cells, 24 hours
Summary of the method: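 Endogenously HiBiT-tagged K562 knock-in lines treated 24 h at 37 °C with 10-point 3-fold dilutions (top 10 μM final, DMSO ≤0.25%) in IMDM+1% FBS. Lytic Nano-Glo luminescence normalized to DMSO and unmodified K562 controls; four-parameter fit gives 50%-abundance concentration (IC50).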

MYB mRNA = test: Splicing RT-qPCR assay, MYB canonical (CJ) and alternative (AJ) junction mRNA; settings: Homo sapiens; for IC50: canonical junction mRNA; for AC50: alternative junction mRNA, read-out: MYB AJ (AC50, increase in AJ mRNA)
Summary of the method: (§1)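 A673 or K562 cells were treated for 24 h at 37 °C with an 11-point 3-fold compound dilution series (top final 10 uM, DMSO ≤0.25%). Lysates then went to one-step TaqMan RT-qPCR quantifying canonical (CJ) and alternative-exon (AJ) junction transcripts, normalized to a housekeeping gene.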

HTT mRNA = test: Splicing RT-qPCR assay, HTT canonical (CJ) and alternative (AJ) junction mRNA; settings: Homo sapiens; for IC50: canonical junction mRNA; for AC50: alternative junction mRNA, read-out: HTT AJ (AC50, increase in AJ mRNA)
Summary of the method: as §1

[1] = qPCR panel, read-out: MYB CJ (decrease in CJ mRNA levels, IC50)
[2] = RT-qPCR, A673 or K562 cells, 24 hours treatment
[3] = RT-qPCR, A673 or K562 cells, 24 hours treatment, read-out: MYB CJ (IC50, decrease in CJ mRNA)
[4] = 24 h, RT-qPCR, A673 or K562 cells, 24 hours treatment, read-out: HTT CJ (IC50, decrease in CJ mRNA)
[5] = qPCR panel, read-out: HTT CJ (decrease in CJ mRNA levels, IC50)

Structure (SMILES)	IC50 (HiBiT-tagged HTT protein)	IC50 (MYB mRNA; [1])	IC50 (MYB mRNA; [3])	IC50 (HTT mRNA; [4])	IC50 (HTT mRNA; [5])	AC50 (MYB mRNA; [2])	AC50 (HTT mRNA; [2])
CNC1CCN(c2cnc3nc(-c4cc5cn(C)nc5c(C)c4O)cc(OC)c3n2)C1 (stereo not shown) [Compound 194, 5-{8-methoxy-2-[3-(methylamino)360pyrrolidine-1-yl]pyrido[2,3-b]pyrazin-6-yl}-2,7-dimethylindazol-6-ol]	1 to 10 µM	1 to 10 µM	1 to 10 µM	1 to 10 µM	1 to 10 µM	1 to 10 µM	> 10 µM
Cn1cc2cc(-c3ccc4cc(N5CC[C@H](NC(C)(C)C)C5)cnc4n3)c(O)cc2n1 (single isomer, unassigned) [Compound 200]	1 to 10 µM	0.1 to 1 µM	0.1 to 1 µM	1 to 10 µM	1 to 10 µM	0.1 to 1 µM	1 to 10 µM
Cc1c(O)c(-c2cc(-c3nnc[nH]3)c3cc(N4C[C@@H](C)N[C@@H](C)C4)cnc3n2)cc2cn(C)nc12 [Compound 261, 5-{6-[(3R,5S)-3,5-dimethylpiperazin-1-yl]-4-(4H-1,2,4-triazol-3-yl)-1,8-naphthyridin-2-yl}-2,7-dimethylindazol-6-ol]	> 10 µM	< 0.1 µM	1 to 10 µM	> 10 µM	< 0.1 µM	> 10 µM	> 10 µM
CN[C@@H]1CCN(c2cnc3nc(-c4cc(F)c5nc(C)cn5c4)ncc3c2)C1 [Compound 202, (3R)-1-(2-{8-fluoro-2-methylimidazo[1,2-a]pyridin-6-yl}pyrido[2,3-d]pyrimidin-6-yl)-N-methylpyrrolidin-3-amine]	0.1 to 1 µM	< 0.1 µM	< 0.1 µM	0.1 to 1 µM	0.1 to 1 µM	0.1 to 1 µM	0.1 to 1 µM
COc1nc(-c2cc3cn(C)nc3c(C)c2O)nc2ncc(N3CCC(N(C)C)CC3)cc12 [Compound 163, 5-{6-[4-(dimethylamino)piperidin-1-yl]-4-methoxypyrido[2,3-d]pyrimidin-2-yl}-2,7-dimethylindazol-6-ol]	1 to 10 µM	0.1 to 1 µM	0.1 to 1 µM	1 to 10 µM	1 to 10 µM	0.1 to 1 µM	> 10 µM
Cc1c(O)c(-c2cc(Cl)c3cc(N(C)C4CCNC4)cnc3n2)cc2cn(C)nc12 (stereo not shown) [Compound 204, 5-[4-chloro-6-(367pyrrolidine-3-ylamino)-1,8-naphthyridin-2-yl]-2,7-dimethylindazol-6-ol]	0.1 to 1 µM	0.1 to 1 µM	0.1 to 1 µM	1 to 10 µM	1 to 10 µM	0.1 to 1 µM	1 to 10 µM

Second part, led by results:

IC50 (HiBiT-tagged HTT protein)	IC50 (MYB mRNA; [1])	IC50 (MYB mRNA; [3])	IC50 (HTT mRNA; [4])	IC50 (HTT mRNA; [5])	Structure (SMILES)	AC50 (MYB mRNA; [2])	AC50 (HTT mRNA; [2])
0.1 to 1 µM	< 0.1 µM	< 0.1 µM	0.1 to 1 µM	0.1 to 1 µM	Cc1c(O)c(-c2cc(Cl)c3cc(N4CCNCC4)cnc3n2)cc2cn(C)nc12 [Compound 154, 5-[4-chloro-6-(piperazin-1-yl)-1,8-naphthyridin-2-yl]-2,7-dimethylindazol-6-ol]	< 0.1 µM	0.1 to 1 µM
< 0.1 µM	< 0.1 µM	< 0.1 µM	< 0.1 µM	< 0.1 µM	CN[C@@H]1CCN(c2cnc3nc(-c4cc5cn(C)nc5c(C)c4O)nc(OC)c3c2)C1 [Compound 211, 5-{4-methoxy-6-[(3R)-3-(methylamino)pyrrolidin-1-yl]pyrido[2,3-d]pyrimidin-2-yl}-2,7-dimethylindazol-6-ol]	< 0.1 µM	< 0.1 µM
< 0.1 µM	< 0.1 µM	< 0.1 µM	< 0.1 µM	< 0.1 µM	COc1nc(-c2cc3cn(C)nc3c(F)c2O)nc2ncc(N3C[C@@H](C)N[C@@H](C)C3)cc12 [Compound 218]	< 0.1 µM	0.1 to 1 µM
< 0.1 µM	< 0.1 µM	< 0.1 µM	< 0.1 µM	< 0.1 µM	CN[C@@H]1CCN(c2cnc3nc(-c4cc5cn(C)nc5c(F)c4O)cc(Cl)c3c2)C1 [Compound 271]	< 0.1 µM	< 0.1 µM
